Earlier results on two molecules are cited in patent US20040058943A1, “Medicinal composition for treatment of chronic cardiac failure” (priority 2001, published 2004).

Series [1] concerns model rats of heart failure after myocardial infarction. As to conditions: for effect on mortality: 9-months long-term oral administration.
Series [2] deals with model rats of heart failure. To be noted: 10-week oral administration.

Like-named read-outs stand apart in the source and are kept apart here.

Turning to `COc1ccccc1Oc1c(NS(=O)(=O)c2ccc(C(C)(C)C)cc2)nc(-c2ncccn2)nc1OCCO` [bosentan], the figures for the effect on mortality entry in series [1] (dose 30 mg/kg·day) and in series [1] (dose 100 mg/kg·day) were “ineffective” and “significantly reduces the mortality”, respectively. For the same molecule, in series [1] (long-term oral administration), the “ameliorating the left ventricular end-diastolic pressure (LVEDP)” value is on record as “effective”. Moreover, the “maximum value of the first order differentiation of the left ventricular systolic pressure (LVdP/dtmax)” value in series [1] (long-term oral administration) is listed as “ineffective”.

Regarding `COc1cc(OC)nc(O[C@H](C(=O)O)C(OC)(c2ccccc2)c2ccccc2)n1` [darusentan], in series [2], the “ameliorating the left ventricular end-diastolic pressure (LVEDP)” value was “effective”, the cardiac hypertrophy result is “ineffective” and the “maximum value of the first order differentiation of the left ventricular systolic pressure (LVdP/dtmax)” value is recorded as “ineffective”.
